Columns and labels:
activated T cells = test: Quantitative real time PCR of mRNAs in activated T cells; type: cell-based, C57/BL6 mice
[1] = tested on: LPS-induced TNFα production; test: Serum TNFα in mice injected with LPS; type: in vivo; settings: 2ME2-pretreated mice injected with LPS
ERα = molecular target: T1, ERα (Homo sapiens, UniProt P03372); settings: cited from earlier work
T1 sequence (P03372 1-595): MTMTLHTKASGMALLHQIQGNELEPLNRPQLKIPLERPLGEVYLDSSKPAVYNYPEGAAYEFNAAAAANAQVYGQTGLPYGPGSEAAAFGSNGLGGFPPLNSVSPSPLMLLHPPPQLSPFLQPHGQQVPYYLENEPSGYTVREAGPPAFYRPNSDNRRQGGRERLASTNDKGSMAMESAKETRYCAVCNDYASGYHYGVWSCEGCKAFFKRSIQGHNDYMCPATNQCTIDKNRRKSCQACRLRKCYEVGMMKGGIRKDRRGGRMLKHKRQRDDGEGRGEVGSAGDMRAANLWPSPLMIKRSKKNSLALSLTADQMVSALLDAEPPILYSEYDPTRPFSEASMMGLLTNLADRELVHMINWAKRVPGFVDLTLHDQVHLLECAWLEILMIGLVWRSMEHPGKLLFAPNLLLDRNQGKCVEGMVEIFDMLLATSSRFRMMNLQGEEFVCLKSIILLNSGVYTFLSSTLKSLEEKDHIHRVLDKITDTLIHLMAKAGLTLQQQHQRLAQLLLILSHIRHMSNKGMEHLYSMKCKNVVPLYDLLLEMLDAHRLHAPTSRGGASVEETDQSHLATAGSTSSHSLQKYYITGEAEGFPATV

activated B cells = test: B cell activation markers CD25 and CD69; type: cell-based, C57/BL6 mice
Description: Cells were pre-incubated with various concentrations of 2ME2 (Entremed) or vehicle (DMSO) for 30 minutes at 37° C.
Purified CD4^+ T cells were stimulated with plate-bound anti-CD3 (clone 2C11, BD, 10 ng/ml) plus anti-CD28 (clone 37.51, BD, 100 ng/ml). Purified B220+ B cells were stimulated with anti-IgM (Jackson, 5 μg/ml), anti-CD40 (clone 3/20, BD, 5 μg/ml) or LPS (Sigma, 20 μg/ml) for the times indicated in FIG. 3. CD25 and CD69 expression was determined by flow cytometry (FACSCanto II, BD) and analyzed using FloJo software (Treestar Inc). Proliferation was assessed by 3H-thymidine incorporation. Viability and upregulation of cell surface markers on activated T cells were assessed by flow cytometry using Annexin V and propridium iodide. Human Peripheral blood mononuclear cells (PBMC) were isolated using Mono-Poly Resolving Medium (MP Biomedical) according to the manufacturer's protocols and activated with anti-CD3 (clone UCHT1) and anti-CD28 (clone CD28.2).

Th17 cells = test: Intracellular cytokine staining of in vitro differentiated Th17 cells; type: cell-based, C57/BL6 mice
NFATc1 = NFATc1 nuclear translocation by immunoblotting of nuclear fractions; type: cell-based, C57/BL6 mice
Description: FIG. 4A, purified T cells pre-treated with 2ME2 (50 μM) were stimulated with PMA/iono for the indicated times. Whole cell lysates were subjected to immunoblotting to detect the indicated proteins. FIG. 4B, nuclear lysates were analyzed by EMSA to detect DNA binding to NF-κB or AP-1. FP, free probe. FIG. 4C, purified T cells or B cells were pre-treated with vehicle (−) or 50 μM 2ME2 (+) and were stimulated with PMA/iono for 30 or 60 minutes (left), or with anti-CD3/28 or anti-IgM/CD40 for 24 hours (right). Nuclear fractions of lymphocytes were analyzed by immunoblotting to detect nuclear translocation of NFATc1. Lamin A, nuclear protein loading control. NS; non-specific band. For FIGS. 4A-4C, data are representative of at least two independent experiments. FIG. 4D, stably transfected NFAT and NF-κB Jurkat luciferase reporter cell lines were preincubated with 2ME2 for 30 minutes, and stimulated via crosslinking of anti-CD3/28 antibodies with goat anti-mouse antibodies (GaM). 5 hours later, secreted luciferase activity indicates relative transcriptional activity. Data is reported as normalized luciferase activity and is representative of 3 independent experiments.
T or B cells pre-incubated with vehicle or 2ME2 (50 μM) were stimulated with PMA (10 ng/ml)+iono (50 ng/ml); plate-bound anti-CD3 (30 ng/ml)+anti-CD28 (100 ng/ml); or anti-IgM (1 μg/ml)+anti-CD40 (1 μg/ml). Nuclear extracts (5 μg protein) were immunoblotted with anti-NFATc1 (clone 7A6, Santa Cruz) and anti-Lamin A (clone H-102, Santa Cruz).

T cells = test: T cell activation markers CD25 and CD69 by flow cytometry; type: cell-based, C57/BL6 mice; settings: anti-CD3/28 or PMA/iono
Description: FIGS. 2A-2E, show proliferation and activation of T cells are inhibited by 2ME2. FIG. 2A, CD4^+ T cells were pre-treated with the indicated concentrations of 2ME2 and stimulated with plate-bound anti-CD3/28 or PMA/iono. Proliferation was assayed 24 hours (left) or 48 hours (right) later by 3H-thymidine incorporation. FIG. 2B, CD4^+ and CD8^+ T cells were stimulated with anti-CD3/28 in the presence of increasing concentrations of 2ME2. CD25 expression was assessed at 6 hours or 24 hours post-stimulation by flow cytometry. FIG. 2C, Quantification of CD25 expression in purified CD4^+ T cells pre-treated with increasing concentrations of 2ME2, and stimulated with anti CD3/28 or PMA/iono for 6 or 24 hours. […] Viability was determined 24 hours or 48 hours post-stimulation by flow cytometry. […] Proliferation was determined 24 hours or 48 hours later by 3H-thymidine incorporation. […]
Purified CD4^+ T cells were stimulated with plate-bound anti-CD3 (clone 2C11, BD, 10 ng/ml) plus anti-CD28 (clone 37.51, BD, 100 ng/ml). […] CD25 and CD69 expression was determined by flow cytometry (FACSCanto II, BD) and analyzed using FloJo software (Treestar Inc). Proliferation was assessed by 3H-thymidine incorporation. Viability and upregulation of cell surface markers on activated T cells were assessed by flow cytometry using Annexin V and propridium iodide. […]

## COc1cc2c(cc1O)CC[C@@H]1[C@@H]2CC[C@]2(C)[C@@H](O)CC[C@@H]12 [2ME2, 2-Methoxyestradiol]
Activated T cells; 2ME2 50 μM, anti-CD3/28
  induction of CD25 mRNA: decreased the induction
  induction of CD44 mRNA: decreased the induction
  induction of IFNγ mRNA: decreased the induction
  induction of IL-2 mRNA: decreased the induction
  induction of TNFα mRNA: decreased the induction
Activated T cells; 3 hours post stimulation
  mRNA levels of GATA3: normal induction
Activated T cells; after 3 hours and 24 hours anti-CD3/28 stimulation
  up-regulation of IL-17 mRNA: blocking up-regulation
Activated T cells; in response to TCR ligation
  upregulation of IL-4 mRNA: inhibited
Activated T cells; re-stimulation after 5 days activation
  IL-17 production on re-stimulation: blocked
[1]
  serum TNFα levels: no reduction
ERα
  lower affinity than estradiol for ERα: 500 fold
Activated B cells
  up-regulation of CD25 in activated B cells: prevented
  up-regulation of CD69 in activated B cells: prevented
Th17 cells; 50 μM 2ME2, PMA/iono 6 hours, vehicle 23.2%
  Th17 cells positive for IL-17: 7.3%
Th17 cells; PMA/iono 6 hours, vehicle 9.1%
  production of IFNγ in Th17 cells (positive cells): 7.3%
NFATc1; 50 μM 2ME2, 30-60 minutes after PMA/iono stimulation
  NFATc1 in the nuclear fraction of T cells: reduce the amount of NFATc1 present in the nuclear fraction
NFATc1; 50 μM 2ME2, 24 hours after anti-CD3/28 stimulation
  NFATc1 in the nuclear fraction of T cells: reduce the amount of NFATc1 present in the nuclear fraction
NFATc1; 50 μM 2ME2, 24 hours after anti-IgM/CD40-stimulation
  NFATc1 in the nuclear fraction of B cells: reduce the amount of NFATc1 present in the nuclear fraction
T cells
  up-regulation of CD25: blocked up-regulation
  up-regulation of CD69: blocked up-regulation
